Test results reported in patent EP4603105A1, “PHARMACEUTICAL COMPOSITION CONTAINING CYCLIC COMPOUND HAVING SELECTIVE KRAS INHIBITORY EFFECT AGAINST HRAS AND NRAS” (CHUGAI SEIYAKU KABUSHIKI KAISHA, priority 2022, dated 2024).
Values belong to the compound of their own block, whether it stands above or below them.

What was measured:
[1] = target: GDP-bound NRAS wild-type protein (Homo sapiens, UniProt P01111); test: Binding to NRAS by surface plasmon resonance (SPR), KD and KD ratio to KRAS; details: ratio of the KD value with respect to GDP-bound NRAS wild-type protein to the KD value with respect to KRAS
GDP-bound NRAS wild-type protein, sequence (P01111 whole entry): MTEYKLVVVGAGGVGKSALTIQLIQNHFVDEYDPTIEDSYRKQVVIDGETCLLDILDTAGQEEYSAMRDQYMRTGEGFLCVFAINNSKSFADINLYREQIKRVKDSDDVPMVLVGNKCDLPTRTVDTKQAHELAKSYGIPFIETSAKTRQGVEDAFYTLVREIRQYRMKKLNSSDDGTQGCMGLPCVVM
Procedure, shortened: (§1)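 Captured GDP-RAS (~100–300 RU) was exposed to increasing compound concentrations, 75 s per step, in running buffer with 10 µM GDP, 10 mM MgCl2 and 4% DMSO at pH 7.4.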

[2] = system: human lung cancer strain NCI-H441; type: cell-based
Procedure, shortened: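 Step one: dispense the test compound in serial DMSO dilutions. Step three: add the reagent and measure […].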

[3] = target: HRAS wild-type protein (Homo sapiens, UniProt P01112); test: Binding to HRAS by surface plasmon resonance (SPR), KD and KD ratio to KRAS; details: ratio of the KD value with respect to HRAS wild-type protein to the KD value with respect to KRAS
HRAS wild-type protein, sequence (P01112 whole entry): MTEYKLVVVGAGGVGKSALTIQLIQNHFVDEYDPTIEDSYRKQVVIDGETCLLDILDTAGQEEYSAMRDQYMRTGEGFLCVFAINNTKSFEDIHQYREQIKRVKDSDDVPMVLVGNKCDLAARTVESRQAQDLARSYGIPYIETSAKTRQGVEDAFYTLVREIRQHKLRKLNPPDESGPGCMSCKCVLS
Procedure, shortened: as §1

SMILES: CCO[C@@H]1C[C@H]2C(=O)NC3(CCC3)C(=O)N(C)[C@@H](C3CCCC3)C(=O)N(C)[C@H](C(=O)N3CCOCC3)CC(=O)N(C)[C@@H](CC3CC3)C(=O)N[C@@H]([C@@H](C)CC)C(=O)N(C)CC(=O)N(C)[C@H]3CCCCN(C3=O)[C@@H](Cc3ccc(C(F)(F)F)cc3)C(=O)N(C)CC(=O)N[C@@H](CCc3cc(F)c(C(F)(F)F)c(F)c3)C(=O)N2C1 [PP0712]
- NRAS /KRAS [1]: C (A compound having a KD ratio of 0.1 or more and less than 3 is denoted as C)
- IC50 [2]: 0.0071 µM
- HRAS /KRAS [3]: C (A compound having a KD ratio of 0.1 or more and less than 3 is denoted as C)

SMILES: CCO[C@@H]1C[C@H]2C(=O)NC3(CCC3)C(=O)N(C)[C@@H](C3CCCC3)C(=O)N(C)[C@H](C(=O)N3CCOCC3)CC(=O)N(C)[C@@H](CC(C)(C)C)C(=O)N[C@@H]([C@@H](C)CC)C(=O)N(C)CC(=O)N(C)[C@H]3CCCCN(C3=O)[C@@H](Cc3ccc(C(F)(F)F)cc3)C(=O)N(C)CC(=O)N[C@@H](CCc3cc(F)c(C(F)(F)F)c(F)c3)C(=O)N2C1 [PP0714]
- NRAS /KRAS [1]: C (A compound having a KD ratio of 0.1 or more and less than 3 is denoted as C)
- IC50 [2]: 0.0051 µM
- HRAS /KRAS [3]: B (a compound having 3 or more and less than 10 is denoted as B)

SMILES: CCO[C@@H]1C[C@H]2C(=O)NC3(CCC3)C(=O)N(C)[C@@H](C3CCCC3)C(=O)N(C)[C@H](C(=O)N3CCOCC3)CC(=O)N(C)[C@@H](CC3CCCCC3)C(=O)N[C@@H]([C@@H](C)CC)C(=O)N(C)CC(=O)N(C)[C@H]3CCCCN(C3=O)[C@@H](Cc3ccc(C(F)(F)F)cc3)C(=O)N(C)CC(=O)N[C@@H](CCc3cc(F)c(C(F)(F)F)c(F)c3)C(=O)N2C1 [PP0716]
- NRAS /KRAS [1]: C (A compound having a KD ratio of 0.1 or more and less than 3 is denoted as C)
- IC50 [2]: 0.0063 µM
- HRAS /KRAS [3]: B (a compound having 3 or more and less than 10 is denoted as B)

SMILES: CCO[C@@H]1C[C@H]2C(=O)NC3(CCC3)C(=O)N(C)[C@@H](C3CCCC3)C(=O)N(C)[C@H](C(=O)N3CCOCC3)CC(=O)N(C)[C@@H](COC)C(=O)N[C@@H]([C@@H](C)CC)C(=O)N(C)CC(=O)N(C)[C@H]3CCCCN(C3=O)[C@@H](Cc3ccc(C(F)(F)F)cc3)C(=O)N(C)CC(=O)N[C@@H](CCc3cc(F)c(C(F)(F)F)c(F)c3)C(=O)N2C1 [PP0719]
- NRAS /KRAS [1]: C (A compound having a KD ratio of 0.1 or more and less than 3 is denoted as C)
- IC50 [2]: 0.0085 µM
- HRAS /KRAS [3]: B (a compound having 3 or more and less than 10 is denoted as B)

SMILES: CCO[C@@H]1C[C@H]2C(=O)NC3(CCC3)C(=O)N(C)[C@@H](C3CCCC3)C(=O)N(C)[C@H](C(=O)N3CCOCC3)CC(=O)N(C)[C@@H](CCOC)C(=O)N[C@@H]([C@@H](C)CC)C(=O)N(C)CC(=O)N(C)[C@H]3CCCCN(C3=O)[C@@H](Cc3ccc(C(F)(F)F)cc3)C(=O)N(C)CC(=O)N[C@@H](CCc3cc(F)c(C(F)(F)F)c(F)c3)C(=O)N2C1 [PP0720]
- NRAS /KRAS [1]: C (A compound having a KD ratio of 0.1 or more and less than 3 is denoted as C)
- IC50 [2]: 0.0137 µM
- HRAS /KRAS [3]: B (a compound having 3 or more and less than 10 is denoted as B)

SMILES: CCO[C@@H]1C[C@H]2C(=O)NC3(CC(C)(C)C3)C(=O)N(C)[C@@H](C3CCCC3)C(=O)N(C)[C@H](C(=O)N(C)C)CC(=O)N(C)[C@@H](C)C(=O)N[C@@H]([C@@H](C)CC)C(=O)N(C)CC(=O)N(C)[C@H]3CCCCCN(C3=O)[C@@H](Cc3ccc(C(F)(F)F)cc3)C(=O)N(C)CC(=O)N[C@@H](CCc3cc(F)c(C(F)(F)F)c(F)c3)C(=O)N2C1 [PP0723]
- NRAS /KRAS [1]: B (a compound having 3 or more and less than 10 is denoted as B)
- IC50 [2]: 0.0108 µM
- HRAS /KRAS [3]: B (a compound having 3 or more and less than 10 is denoted as B)

SMILES: CCO[C@@H]1C[C@H]2C(=O)NC3(CC(C)(C)C3)C(=O)N(C)[C@@H](C3CCCC3)C(=O)N(C)[C@H](C(=O)N3CCOCC3)CC(=O)N(C)[C@@H](CC(C)C)C(=O)N[C@@H]([C@@H](C)CC)C(=O)N(C)CC(=O)N(C)[C@H]3CCCCCN(C3=O)[C@@H](Cc3ccc(C(F)(F)F)cc3)C(=O)N(C)CC(=O)N[C@@H](CCc3cc(F)c(C(F)(F)F)c(F)c3)C(=O)N2C1 [PP0726]
- NRAS /KRAS [1]: B (a compound having 3 or more and less than 10 is denoted as B)
- IC50 [2]: 0.0327 µM
- HRAS /KRAS [3]: B (a compound having 3 or more and less than 10 is denoted as B)

SMILES: CC[C@H](C)[C@@H]1NC(=O)[C@H](CC)N(C)C(=O)C[C@@H](C(=O)N(C)C)N(C)C(=O)[C@H](C2CCCC2)N(C)C(=O)C2(CCC2)NC(=O)[C@@H]2C[C@H](N3CCC(F)(F)CC3)CN2C(=O)[C@H](CCc2cc(F)c(C(F)(F)F)c(F)c2)NC(=O)CN(C)C(=O)[C@H](Cc2ccc(C(F)(F)F)cc2)N2CCCCC[C@@H](C2=O)N(C)C(=O)CN(C)C1=O [PP0731]
- NRAS /KRAS [1]: B (a compound having 3 or more and less than 10 is denoted as B)
- IC50 [2]: 0.11 µM
- HRAS /KRAS [3]: B (a compound having 3 or more and less than 10 is denoted as B)

More lines, main results first:

- IC50 [2]: 0.0042 µM
SMILES: CCO[C@@H]1C[C@H]2C(=O)NC3(CCC3)C(=O)N(C)[C@@H](C3CCCC3)C(=O)N(C)[C@H](C(=O)N3CCOCC3)CC(=O)N(C)[C@@H](CC3CCC3)C(=O)N[C@@H]([C@@H](C)CC)C(=O)N(C)CC(=O)N(C)[C@H]3CCCCN(C3=O)[C@@H](Cc3ccc(C(F)(F)F)cc3)C(=O)N(C)CC(=O)N[C@@H](CCc3cc(F)c(C(F)(F)F)c(F)c3)C(=O)N2C1 [PP0713]
- NRAS /KRAS [1]: C (A compound having a KD ratio of 0.1 or more and less than 3 is denoted as C)
- HRAS /KRAS [3]: B (a compound having 3 or more and less than 10 is denoted as B)

- IC50 [2]: 0.0045 µM
SMILES: CCO[C@@H]1C[C@H]2C(=O)NC3(CCC3)C(=O)N(C)[C@@H](C3CCCC3)C(=O)N(C)[C@H](C(=O)N3CCOCC3)CC(=O)N(C)[C@@H](CC3CCCC3)C(=O)N[C@@H]([C@@H](C)CC)C(=O)N(C)CC(=O)N(C)[C@H]3CCCCN(C3=O)[C@@H](Cc3ccc(C(F)(F)F)cc3)C(=O)N(C)CC(=O)N[C@@H](CCc3cc(F)c(C(F)(F)F)c(F)c3)C(=O)N2C1 [PP0715]
- NRAS /KRAS [1]: C (A compound having a KD ratio of 0.1 or more and less than 3 is denoted as C)
- HRAS /KRAS [3]: B (a compound having 3 or more and less than 10 is denoted as B)

- IC50 [2]: 4.7 µM
SMILES: CCO[C@@H]1C[C@H]2C(=O)NC3(CCC3)C(=O)N(C)[C@@H](C3CCCC3)C(=O)N(C)[C@H](C(=O)N3CCOCC3)CC(=O)N(C)C[C@@H](C)C(=O)N[C@@H]([C@@H](C)CC)C(=O)N(C)CC(=O)N(C)[C@H]3CCCCN(C3=O)[C@@H](Cc3ccc(C(F)(F)F)cc3)C(=O)N(C)CC(=O)N[C@@H](CCc3cc(F)c(C(F)(F)F)c(F)c3)C(=O)N2C1 [PP0721]
- NRAS /KRAS [1]: B (a compound having 3 or more and less than 10 is denoted as B)
- HRAS /KRAS [3]: B (a compound having 3 or more and less than 10 is denoted as B)

- IC50 [2]: 0.194 µM
SMILES: CCO[C@@H]1C[C@H]2C(=O)NC3(CCC(F)(F)CC3)C(=O)N(C)[C@@H](C3CCCC3)C(=O)N(C)[C@H](C(=O)N(C)C)CC(=O)N(C)[C@@H](C)C(=O)N[C@@H]([C@@H](C)CC)C(=O)N(C)CC(=O)N(C)[C@H]3CCCCCN(C3=O)[C@@H](Cc3ccc(C(F)(F)F)cc3)C(=O)N(C)CC(=O)N[C@@H](CCc3cc(F)c(C(F)(F)F)c(F)c3)C(=O)N2C1 [PP0725]
- NRAS /KRAS [1]: B (a compound having 3 or more and less than 10 is denoted as B)
- HRAS /KRAS [3]: B (a compound having 3 or more and less than 10 is denoted as B)

- IC50 [2]: 0.0852 µM
SMILES: CCO[C@@H]1C[C@H]2C(=O)NC3(CC=CC3)C(=O)N(C)[C@@H](C3CCCC3)C(=O)N(C)[C@H](C(=O)N3CCOCC3)CC(=O)N(C)[C@@H](CC(C)C)C(=O)N[C@@H]([C@@H](C)CC)C(=O)N(C)CC(=O)N(C)[C@H]3CCCCCN(C3=O)[C@@H](Cc3ccc(C(F)(F)F)cc3)C(=O)N(C)CC(=O)N[C@@H](CCc3cc(F)c(C(F)(F)F)c(F)c3)C(=O)N2C1 [PP0727]
- NRAS /KRAS [1]: B (a compound having 3 or more and less than 10 is denoted as B)
- HRAS /KRAS [3]: B (a compound having 3 or more and less than 10 is denoted as B)

- IC50 [2]: 0.252 µM
SMILES: CCO[C@@H]1C[C@H]2C(=O)NC3(CCC(F)(F)CC3)C(=O)N(C)[C@@H](C3CCCC3)C(=O)N(C)[C@H](C(=O)N3CCOCC3)CC(=O)N(C)[C@@H](CC(C)C)C(=O)N[C@@H]([C@@H](C)CC)C(=O)N(C)CC(=O)N(C)[C@H]3CCCCCN(C3=O)[C@@H](Cc3ccc(C(F)(F)F)cc3)C(=O)N(C)CC(=O)N[C@@H](CCc3cc(F)c(C(F)(F)F)c(F)c3)C(=O)N2C1 [PP0728]
- NRAS /KRAS [1]: B (a compound having 3 or more and less than 10 is denoted as B)
- HRAS /KRAS [3]: B (a compound having 3 or more and less than 10 is denoted as B)

- IC50 [2]: 0.0296 µM
SMILES: CCO[C@@H]1C[C@H]2C(=O)NC3(CCC3)C(=O)N(C)[C@@H](C3CCCC3)C(=O)N(C)[C@H](C(=O)N(C)C)CC(=O)N(C)[C@@H](C)C(=O)N[C@@H]([C@H](C)CC)C(=O)N(C)CC(=O)N(C)[C@H]3CCCCN(C3=O)[C@@H](Cc3ccc(C(F)(F)F)cc3)C(=O)N(C)CC(=O)N[C@@H](CCc3cc(F)c(C(F)(F)F)c(F)c3)C(=O)N2C1 [PP0730]
- NRAS /KRAS [1]: C (A compound having a KD ratio of 0.1 or more and less than 3 is denoted as C)
- HRAS /KRAS [3]: C (A compound having a KD ratio of 0.1 or more and less than 3 is denoted as C)
